Like-named read-outs stand apart in the source and are kept apart here.
Assays:
ACE-2 [1] = biological target: ACE-2 (Rattus norvegicus, UniProt Q5EGZ1); assay: ACE-2 Competitive Substrate Assay, rat ACE-2; assay type: biochemical; details: Ki class, compounds tested in 5% DMSO
ACE (Sigma, A2580) = biological target: T1, ACE (Sigma, A2580) (Sus scrofa, UniProt F1RRW5); assay: ACE enzymatic activity assay; assay type: biochemical, porcine; details: Ki class, compounds tested in 5% DMSO
T1 construct: ACE from porcine kidney; purchased Sigma A2580; host or cells: porcine kidney
T1 sequence (F1RRW5 34-1309): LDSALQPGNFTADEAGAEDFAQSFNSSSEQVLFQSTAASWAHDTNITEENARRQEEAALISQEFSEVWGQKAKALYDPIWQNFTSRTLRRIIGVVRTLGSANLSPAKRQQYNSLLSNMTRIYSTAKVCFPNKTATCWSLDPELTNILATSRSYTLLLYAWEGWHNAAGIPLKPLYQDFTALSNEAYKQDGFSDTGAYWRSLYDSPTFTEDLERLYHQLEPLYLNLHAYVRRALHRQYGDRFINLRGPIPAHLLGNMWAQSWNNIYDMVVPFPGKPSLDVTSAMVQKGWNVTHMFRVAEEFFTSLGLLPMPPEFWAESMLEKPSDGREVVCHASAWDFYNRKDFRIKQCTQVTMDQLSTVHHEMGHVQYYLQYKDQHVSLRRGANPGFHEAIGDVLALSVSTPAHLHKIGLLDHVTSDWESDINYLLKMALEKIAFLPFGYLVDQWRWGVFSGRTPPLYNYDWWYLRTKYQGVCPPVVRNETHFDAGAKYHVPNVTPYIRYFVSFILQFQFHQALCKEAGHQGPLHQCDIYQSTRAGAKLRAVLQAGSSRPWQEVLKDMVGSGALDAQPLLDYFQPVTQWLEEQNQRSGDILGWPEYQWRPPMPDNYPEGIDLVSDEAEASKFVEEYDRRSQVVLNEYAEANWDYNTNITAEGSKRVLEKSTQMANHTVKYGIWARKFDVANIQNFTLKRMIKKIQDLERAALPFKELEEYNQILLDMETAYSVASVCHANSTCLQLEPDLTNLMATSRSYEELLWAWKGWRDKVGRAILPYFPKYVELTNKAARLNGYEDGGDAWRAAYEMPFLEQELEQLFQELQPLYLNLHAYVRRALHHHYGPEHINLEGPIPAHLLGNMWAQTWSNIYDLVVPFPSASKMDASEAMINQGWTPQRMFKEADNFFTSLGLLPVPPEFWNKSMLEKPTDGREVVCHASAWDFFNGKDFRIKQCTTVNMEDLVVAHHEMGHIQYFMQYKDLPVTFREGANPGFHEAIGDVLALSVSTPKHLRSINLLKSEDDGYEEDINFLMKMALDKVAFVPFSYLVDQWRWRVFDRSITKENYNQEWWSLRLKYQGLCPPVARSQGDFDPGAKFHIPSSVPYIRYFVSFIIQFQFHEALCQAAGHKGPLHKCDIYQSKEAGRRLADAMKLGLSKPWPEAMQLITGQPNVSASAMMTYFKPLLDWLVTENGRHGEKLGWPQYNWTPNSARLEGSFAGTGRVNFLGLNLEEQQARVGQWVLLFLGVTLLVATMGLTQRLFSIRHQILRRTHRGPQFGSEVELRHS
Method in brief: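 Fluorogenic substrate cleavage by 1 nM ACE, read at 320/405 nm after EDTA stop at ~30 min. Reactions at 25 °C, pH 7.5, in HEPES/NaCl/Brij-35 buffer; compounds tested at 12 concentrations in 5% DMSO.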

Carboxypeptidase A = biological target: T2, Carboxypeptidase A (Bos taurus, UniProt P00730); assay: Carboxypeptidase A activity assay; assay type: biochemical; details: Ki class, compounds tested in 5% DMSO
T2 sequence (P00730 111-419): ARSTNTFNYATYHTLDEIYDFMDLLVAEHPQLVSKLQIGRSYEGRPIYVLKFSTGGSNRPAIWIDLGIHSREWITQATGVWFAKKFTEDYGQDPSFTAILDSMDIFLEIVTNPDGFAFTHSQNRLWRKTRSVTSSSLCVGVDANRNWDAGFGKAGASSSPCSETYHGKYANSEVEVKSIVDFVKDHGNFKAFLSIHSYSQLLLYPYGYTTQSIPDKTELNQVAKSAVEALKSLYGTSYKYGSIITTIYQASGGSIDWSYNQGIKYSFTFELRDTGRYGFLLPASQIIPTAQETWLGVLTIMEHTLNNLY
Method in brief: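 Ki obtained by correcting apparent Ki for substrate, Ki=Kiapp/(1+[S]/Km), from 12-concentration series. Enzyme activity read by absorbance at 328 nm with 5% DMSO present, EDTA stop.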

ACE-2 [2] = biological target: T3, ACE-2 (Homo sapiens, UniProt Q9BYF1); assay: ACE-2 Competitive Substrate Assay (ACS Assay); assay type: biochemical
T3 construct: a stop codon inserted after the serine immediately preceding the transmembrane domain; made in house; host or cells: CHO K1 cells (transient transfection, purified from conditioned medium)
T3 sequence (Q9BYF1 18-740 limits assumed): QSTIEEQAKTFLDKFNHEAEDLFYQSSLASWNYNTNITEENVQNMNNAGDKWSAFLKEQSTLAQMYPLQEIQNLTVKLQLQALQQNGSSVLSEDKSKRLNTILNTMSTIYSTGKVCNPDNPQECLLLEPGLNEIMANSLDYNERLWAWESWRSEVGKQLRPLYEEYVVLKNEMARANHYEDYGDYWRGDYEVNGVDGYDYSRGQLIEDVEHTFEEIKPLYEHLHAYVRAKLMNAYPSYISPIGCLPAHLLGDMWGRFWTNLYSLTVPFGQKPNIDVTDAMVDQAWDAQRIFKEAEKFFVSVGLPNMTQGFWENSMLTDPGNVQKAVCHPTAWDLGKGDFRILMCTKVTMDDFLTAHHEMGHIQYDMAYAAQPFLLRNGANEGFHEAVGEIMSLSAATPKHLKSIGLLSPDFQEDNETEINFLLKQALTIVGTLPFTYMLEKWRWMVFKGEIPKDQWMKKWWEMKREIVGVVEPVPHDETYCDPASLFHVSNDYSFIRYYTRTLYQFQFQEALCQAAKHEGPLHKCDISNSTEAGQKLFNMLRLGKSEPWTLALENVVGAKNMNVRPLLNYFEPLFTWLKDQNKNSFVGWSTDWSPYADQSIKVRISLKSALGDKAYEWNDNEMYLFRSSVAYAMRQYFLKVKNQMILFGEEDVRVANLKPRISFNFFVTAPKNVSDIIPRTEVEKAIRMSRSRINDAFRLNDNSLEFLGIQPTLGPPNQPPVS

[3] = Ki class, compounds tested in 5% DMSO, 12 concentrations, read-out: Human ACE-2 Activity

Sequence of ACE-2 (Rattus norvegicus, UniProt Q5EGZ1) (Q5EGZ1 18-805): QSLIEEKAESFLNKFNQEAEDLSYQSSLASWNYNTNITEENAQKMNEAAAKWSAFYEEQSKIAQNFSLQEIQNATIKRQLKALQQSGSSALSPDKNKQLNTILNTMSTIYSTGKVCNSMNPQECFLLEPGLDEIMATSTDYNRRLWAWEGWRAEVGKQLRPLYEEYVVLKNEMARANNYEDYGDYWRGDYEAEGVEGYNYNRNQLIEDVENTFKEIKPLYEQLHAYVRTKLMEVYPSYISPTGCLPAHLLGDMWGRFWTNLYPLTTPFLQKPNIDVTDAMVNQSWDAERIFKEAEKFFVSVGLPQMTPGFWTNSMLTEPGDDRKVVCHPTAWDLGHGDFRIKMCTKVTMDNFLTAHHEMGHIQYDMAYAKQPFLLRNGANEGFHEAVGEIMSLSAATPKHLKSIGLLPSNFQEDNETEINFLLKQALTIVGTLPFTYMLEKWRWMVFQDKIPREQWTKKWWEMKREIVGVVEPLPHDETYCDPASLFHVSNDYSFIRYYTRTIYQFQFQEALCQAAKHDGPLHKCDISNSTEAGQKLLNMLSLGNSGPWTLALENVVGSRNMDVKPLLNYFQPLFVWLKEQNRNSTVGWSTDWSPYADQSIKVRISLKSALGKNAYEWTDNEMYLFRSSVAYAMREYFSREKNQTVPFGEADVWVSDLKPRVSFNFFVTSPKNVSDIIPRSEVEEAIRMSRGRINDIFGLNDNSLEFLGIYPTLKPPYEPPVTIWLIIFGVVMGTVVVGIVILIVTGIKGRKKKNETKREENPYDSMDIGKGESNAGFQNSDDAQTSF

Ki (ACE-2 [1]; 12 concentrations) [nM] | Ki (ACE (Sigma, A2580); 12 concentrations) [µM] | Ki (Carboxypeptidase A; 12 concentrations) [µM] | Ki (ACE-2 [2]; [3]) [nM] | Ki (ACE-2 [1]; 12 compound concentrations) [nM] | Ki (ACE (Sigma, A2580); 12 compound concentrations) [µM] | Ki (Carboxypeptidase A; 12 compound concentrations) [µM] | Ki (ACE-2 [2]; Ki class, compounds tested in 5% DMSO, 12 compound concentrations, Ki=Kiapp/(1+[S]/Km), read-out: Human ACE-2 Activity) [nM] | Ki (ACE-2 [2]; Table 3, very good ACE-2 inhibiting compounds, species not given, read-out: ACE-2 Activity, Ki) [nM] | Compound
100 to 500 | > 50 | > 50 | 100 to 500 | – | – | – | – | – | CC(C)CC(N[C@@H](Cc1cncn1COCc1ccccc1)C(=O)O)C(=O)O (single isomer, unassigned) [EN, 2-[2-(3-Benzyloxymethyl-3H-imidazol-4-yl)-1-carboxy-ethylamino]-4-methyl-pentanoic acid]
– | – | – | – | 100 to 500 | 10 to 50 | 10 to 50 | < 100 | 50 to 100 | CC(C)CC(N[C@@H](Cc1cncn1Cc1ccc(OC(F)(F)F)cc1)C(=O)O)C(=O)O (single isomer, unassigned) [HS, 2-[1-Carboxy-2-[3-(4-trifluoromethoxy-benzyl)-3H-imidazol-4-yl]-ethylamino]-4-methyl-pentanoic acid]
> 500 | > 50 | > 50 | > 500 | – | – | – | – | – | CC(C)CC(N[C@@H](Cc1c[nH]cn1)C(N)=O)C(=O)O (single isomer, unassigned) [EV, 2-[1-Carbamoyl-2-(1H-imidazol-4-yl)-ethylamino]4-methyl-pentanoic acid]
100 to 500 | > 50 | 10 to 50 | > 500 | – | – | – | – | – | CCC(C)C(NC(Cc1cncn1Cc1ccccc1)C(=O)O)C(=O)O (single isomer, unassigned) [GC, 2-[2-(3-Benzyl-3H-imidazol-4-yl)-1-carboxy-ethylamino]-3-methyl-pentanoic acid]
> 500 | > 50 | > 50 | > 500 | – | – | – | – | – | COc1ccc(Cn2cnc(C[C@H](NC(CC(C)C)C(=O)O)C(=O)O)c2)cc1 (some centres unmarked) [EM, 2-[1-Carboxy-2-[1-(4-methoxy-benzyl)-1H-imidazol-4-yl]-ethylamino)4-methyl-pentanoic acid]
100 to 500 | > 50 | 10 to 50 | > 500 | – | – | – | – | – | CC(C)C[C@H](NC(CN(C)c1ccccc1)C(=O)O)C(=O)O (some centres unmarked) [AP, 2-[1-Carboxy-2-(methyl-phenyl-amino)-ethylamino]-4-methyl-pentanoic acid]
> 500 | > 50 | > 50 | > 500 | – | – | – | – | – | CC(C)[C@H](NC(CCc1ccccc1)C(=O)O)C(=O)O (some centres unmarked) [AS, 2-(1-Carboxy-3-phenyl-propylamino)-3-methyl-butync acid]
100 to 500 | > 50 | < 10 | > 500 | – | – | – | – | – | O=C(O)C(Cc1ccccc1)N[C@@H](Cc1cncn1Cc1ccccc1)C(=O)O (single isomer, unassigned) [GF, 3-(3-Benzyl-3H-imidazol-4-yl)-2-(1-carboxy-2-phenyl-ethylamino)-propionic acid]
> 500 | 10 to 50 | > 50 | > 500 | – | – | – | – | – | CCCC(N[C@@H](Cc1c[nH]cn1)C(=O)O)C(=O)O (single isomer, unassigned) [DK, 2-[1-Carboxy-2-(1H-imidazol-4-yl)-ethylamino)pentanoic acid]
> 500 | > 50 | > 50 | > 500 | – | – | – | – | – | CC(C)CC(N[C@@H](Cc1c[nH]cn1)C(=O)Nc1ccc([N+](=O)[O-])cc1)C(=O)O (single isomer, unassigned) [EX, 2-[2-(1H-Imidazol-4-yl)-1-(4-nitro-phenylcarbamoyl)ethylamino]-4-methyl-pentanoic acid]
> 500 | > 50 | > 50 | > 500 | – | – | – | – | – | CC(N[C@H](Cc1c[nH]cn1)C(=O)O)C(=O)O (some centres unmarked) [BD, 2-(1-carboxy-ethylamino)-3-(1H-imidazol-4-yl)-propionic acid]
100 to 500 | > 50 | > 50 | > 500 | – | – | – | – | – | CC(C)CC(NC(Cc1ccccn1)C(=O)O)C(=O)O (centres unmarked) [BF, 2-(1-Carboxy-2-pyridin-2-yl-ethylamino)-4-methyl-pentanoic acid]
100 to 500 | > 50 | < 10 | > 500 | – | – | – | – | – | O=C(O)[C@H](CC#Cc1ccccn1)N[C@@H](CCc1ccccc1)C(=O)O [EA, 2-(1-Carboxy-3-phenyl-propylamino)-5-pyridin-2-yl-pent-4-ynoic acid]

From patent US7045532B2 (Millennium Pharmaceuticals, Inc., priority 1999, dated 2006)
